Reference: publication PMC9311798, “A Novel Class of Potent Anti-Tyrosinase Compounds with Antioxidant Activity, 2-(Substituted phenyl)-5-(trifluoromethyl)benzo[d]thiazoles: In Vitro and In Silico Insights” (Antioxidants, 2022)
Entries after “also recorded” stand apart in the source; their conditions may differ.

Key:
[1] = target: T1, cellular tyrosinase in B16F10 cells (Mus musculus, UniProt P11344); assay: Cellular tyrosinase activity (L-DOPA oxidation) in α-MSH/IBMX-stimulated cells; type: cell-based, murine
T1 construct: endogenous in cells; host or cells: B16F10 murine melanoma cells, stimulated with alpha-MSH and IBMX
T1 sequence (P11344 19-533): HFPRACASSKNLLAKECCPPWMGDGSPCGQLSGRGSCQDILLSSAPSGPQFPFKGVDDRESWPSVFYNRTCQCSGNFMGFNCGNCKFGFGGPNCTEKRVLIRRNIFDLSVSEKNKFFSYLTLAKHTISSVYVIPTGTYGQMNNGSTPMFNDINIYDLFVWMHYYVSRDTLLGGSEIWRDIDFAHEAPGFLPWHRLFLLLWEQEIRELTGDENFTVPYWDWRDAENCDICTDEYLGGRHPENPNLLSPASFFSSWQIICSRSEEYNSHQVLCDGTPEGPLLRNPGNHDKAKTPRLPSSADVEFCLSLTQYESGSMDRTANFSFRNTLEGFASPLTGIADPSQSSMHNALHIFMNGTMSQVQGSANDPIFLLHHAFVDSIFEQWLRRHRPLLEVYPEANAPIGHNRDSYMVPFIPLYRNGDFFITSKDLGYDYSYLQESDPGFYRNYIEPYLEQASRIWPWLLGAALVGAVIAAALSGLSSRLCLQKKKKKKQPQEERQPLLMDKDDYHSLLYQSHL
Protocol: Cellular tyrosinase activity was assessed by measuring the oxidation rate of L-DOPA as previously described, with minor modifications. In brief, B16F10 cells were seeded in a 6-well plate at 1 × 10^5 cells/well, and allowed to adhere to well bottoms for 24 h, as described in Section 2.3.5. […]. Cells were then rinsed twice with PBS, exposed to 100 µL of lysis buffer solution (90 µL of 50 mM phosphate buffer (pH 6.5), 5 µL of 2 mM PMSF, and 5 µL of 20% Triton X-100), and lysed at −80 °C for 30 min. After defrosting, cell lysates were transferred to microcentrifuge tubes and centrifuged at 12,000 rpm for 30 min at 4°C, and supernatants (80 µL) were mixed with 20 µL of L-DOPA (2 mg/mL) in a 96-well plate, and incubated for 10 min at 37 °C. Absorbances were measured at 475 nm using a microplate reader (VersaMax^TM, Molecular Devices, Sunnyvale, CA, USA).

mushroom tyrosinase [2] = target: T2, mushroom tyrosinase (Agaricus bisporus, UniProt C7FF04); assay: Kinetic studies on the inhibition of mushroom tyrosinase (Lineweaver–Burk and Dixon plots); type: biochemical; details: for Inhibition type: Lineweaver–Burk plots; for Ki: Dixon plot; for Vmax: regardless of 1b concentration
T2 construct: purchased Sigma-Aldrich
Protocol: Lineweaver–Burk plots of compound 1b were acquired in the presence of L-tyrosine or L-DOPA as substrates. In brief, 10 µL aliquots of DMSO containing compound 1b (final concentrations: 0, 0.1, 0.2, or 0.4 µM in L-tyrosine, and 0, 1, 2, or 4 μM in L-DOPA) were added to the wells of a 96-well plate containing 170 µL of an aqueous solution (final concentrations: 1.0, 2.0, 4.0, 8.0, or 16.0 mM) of L-tyrosine or L-DOPA, sodium phosphate buffer (final concentration: 14.7 mM, pH 6.5), and 20 µL of mushroom tyrosinase (200 units/mL). Initial rates of dopachrome production were determined by measuring the increases in optical density at 475 nm (ΔOD475/min) using a microplate reader (VersaMax^TM, Molecular Devices, Sunnyvale, CA, USA). Maximal velocity (Vmax) was obtained from Lineweaver–Burk plots obtained using five different L-tyrosine or L-DOPA concentrations. Modes of tyrosinase inhibition were determined using plot convergence points.
Target sequence in this assay (C7FF04 1-392): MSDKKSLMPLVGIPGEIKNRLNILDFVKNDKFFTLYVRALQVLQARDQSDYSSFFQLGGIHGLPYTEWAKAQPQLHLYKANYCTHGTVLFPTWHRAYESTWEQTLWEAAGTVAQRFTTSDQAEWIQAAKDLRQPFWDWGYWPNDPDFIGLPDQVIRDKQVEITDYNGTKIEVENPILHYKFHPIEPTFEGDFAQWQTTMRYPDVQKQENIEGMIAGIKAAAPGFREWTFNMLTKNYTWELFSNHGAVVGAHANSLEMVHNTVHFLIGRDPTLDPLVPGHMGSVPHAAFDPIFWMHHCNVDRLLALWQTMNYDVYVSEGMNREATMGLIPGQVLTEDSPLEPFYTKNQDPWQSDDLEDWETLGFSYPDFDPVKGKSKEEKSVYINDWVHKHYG

[3] = system: B16F10 murine melanoma cells; assay: Extracellular melanin content (melanin release into medium) in α-MSH/IBMX-stimulated cells; type: cell-based
Protocol: The anti-melanogenic activities of 1a and 1b were determined using a standard melanin content assay, with minor changes. Briefly, B16F10 cells were seeded in the wells of a 6-well plate at a density of 1 × 10^5 cells/well, and allowed to adhere to well bottoms over 24 h under the conditions used for cell culture (Section 2.3.5). […] Absorbances of culture media at 405 nm were used to determine extracellular melanin contents.

mushroom tyrosinase [4] = target: T2, mushroom tyrosinase; assay: Mushroom tyrosinase inhibition assay; type: biochemical; details: L-DOPA as substrate
Target sequence in this assay (C7FF04 1-392 limits assumed): as the sequence (C7FF04 1-392) above

Oc1ccc(-c2nc3cc(C(F)(F)F)ccc3s2)c(O)c1 [Compound 1b, 4-(5-(Trifluoromethyl)benzo[d]thiazol-2-yl)benzene-1,3-diol]
cellular tyrosinase activity ([1]; 10 µM, compared with kojic acid 20 µM): reduced tyrosinase activity to that achieved by 20 µM kojic acid
cellular tyrosinase activity ([1]; 20 µM): reduced tyrosinase activity to the untreated control level
effect on cellular tyrosinase activity ([1]; 5, 10, 20 µM, IBMX + α-MSH, 48 h): significantly and concentration-dependently suppressed
Inhibition type (mushroom tyrosinase [2]; L-DOPA as substrate): competitive inhibitor; also recorded: L-DOPA (Inhibition Type ^a: Competitive)
Ki (mushroom tyrosinase [2]; L-DOPA): 2450 nM
Vmax (mushroom tyrosinase [2]; L-DOPA): 0.00497 mM/min
Inhibition type (mushroom tyrosinase [2]; L-tyrosine as substrate): competitive inhibitor; also recorded: L-Tyrosine (Inhibition Type ^a: Competitive)
Ki (mushroom tyrosinase [2]; L-tyrosine): 37.6 nM
Vmax (mushroom tyrosinase [2]; L-tyrosine): 0.0101 mM/min
melanin release ([3]; 20 µM): reduced melanin release to control levels
effect on melanin content in media ([3]; 5, 10, 20 µM, α-MSH (1 µM) + IBMX (200 µM), 48 h): concentration-dependently and significantly reduced melanin content increases
IC50 (mushroom tyrosinase [4]): 1.7 ± 0.11 µM
